Results on nine compounds are retold here after patent US20230219979A1, “PYRAZOLO[1,5-a]PYRIDINE COMPOUND, PREPARATION METHOD THEREFOR AND USE THEREOF” (SHENZHEN ZHONGGE BIOLOGICAL TECHNOLOGY CO., LTD., priority 2019, published 2023).

The target in one assay is RET G810S kinase (Homo sapiens, UniProt P07949, G810S). Description: HTRF method for testing the inhibitory activity against RET G810S. The format is biochemical. The following applies: for IC50: HTRF; for inhibitory activity against G810S (in words): mutant strain of RET kinase. For orientation: In TR-FRET formats the signal depends on donor and acceptor labels being close together.
RET G810S kinase, sequence (P07949 29-1114 G810S): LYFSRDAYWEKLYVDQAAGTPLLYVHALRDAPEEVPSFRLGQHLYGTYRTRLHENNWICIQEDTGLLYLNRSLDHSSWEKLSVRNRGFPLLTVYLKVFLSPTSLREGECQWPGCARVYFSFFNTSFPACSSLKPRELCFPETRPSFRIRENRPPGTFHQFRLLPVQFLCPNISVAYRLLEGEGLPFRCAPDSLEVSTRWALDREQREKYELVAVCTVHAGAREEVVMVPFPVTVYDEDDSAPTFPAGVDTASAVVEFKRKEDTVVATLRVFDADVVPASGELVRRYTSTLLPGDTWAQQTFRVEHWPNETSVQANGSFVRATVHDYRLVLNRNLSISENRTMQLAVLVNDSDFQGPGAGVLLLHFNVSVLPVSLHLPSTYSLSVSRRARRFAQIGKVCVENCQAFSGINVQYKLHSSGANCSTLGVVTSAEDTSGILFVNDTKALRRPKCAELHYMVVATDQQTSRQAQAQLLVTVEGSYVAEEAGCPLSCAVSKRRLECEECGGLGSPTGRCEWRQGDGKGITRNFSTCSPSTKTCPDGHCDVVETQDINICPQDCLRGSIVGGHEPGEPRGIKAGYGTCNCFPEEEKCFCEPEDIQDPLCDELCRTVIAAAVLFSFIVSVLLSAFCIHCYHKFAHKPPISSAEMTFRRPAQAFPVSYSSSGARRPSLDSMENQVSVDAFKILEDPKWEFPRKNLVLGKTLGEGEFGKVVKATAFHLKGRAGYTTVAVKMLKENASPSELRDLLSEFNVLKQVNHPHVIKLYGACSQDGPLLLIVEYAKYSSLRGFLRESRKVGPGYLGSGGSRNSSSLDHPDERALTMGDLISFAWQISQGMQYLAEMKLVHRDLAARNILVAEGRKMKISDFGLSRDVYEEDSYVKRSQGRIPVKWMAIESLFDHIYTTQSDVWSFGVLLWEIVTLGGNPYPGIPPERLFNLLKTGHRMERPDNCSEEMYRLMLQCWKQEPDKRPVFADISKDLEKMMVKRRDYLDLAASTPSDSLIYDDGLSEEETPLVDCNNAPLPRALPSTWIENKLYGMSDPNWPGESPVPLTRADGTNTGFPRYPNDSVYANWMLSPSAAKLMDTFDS

For a further assay, the target named is VEGFR2 kinase (Homo sapiens, UniProt P35968). Description: HTRF method for testing the inhibitory activity of compounds against VEGFR2. The format is biochemical.
VEGFR2 kinase, sequence (P35968 20-1356): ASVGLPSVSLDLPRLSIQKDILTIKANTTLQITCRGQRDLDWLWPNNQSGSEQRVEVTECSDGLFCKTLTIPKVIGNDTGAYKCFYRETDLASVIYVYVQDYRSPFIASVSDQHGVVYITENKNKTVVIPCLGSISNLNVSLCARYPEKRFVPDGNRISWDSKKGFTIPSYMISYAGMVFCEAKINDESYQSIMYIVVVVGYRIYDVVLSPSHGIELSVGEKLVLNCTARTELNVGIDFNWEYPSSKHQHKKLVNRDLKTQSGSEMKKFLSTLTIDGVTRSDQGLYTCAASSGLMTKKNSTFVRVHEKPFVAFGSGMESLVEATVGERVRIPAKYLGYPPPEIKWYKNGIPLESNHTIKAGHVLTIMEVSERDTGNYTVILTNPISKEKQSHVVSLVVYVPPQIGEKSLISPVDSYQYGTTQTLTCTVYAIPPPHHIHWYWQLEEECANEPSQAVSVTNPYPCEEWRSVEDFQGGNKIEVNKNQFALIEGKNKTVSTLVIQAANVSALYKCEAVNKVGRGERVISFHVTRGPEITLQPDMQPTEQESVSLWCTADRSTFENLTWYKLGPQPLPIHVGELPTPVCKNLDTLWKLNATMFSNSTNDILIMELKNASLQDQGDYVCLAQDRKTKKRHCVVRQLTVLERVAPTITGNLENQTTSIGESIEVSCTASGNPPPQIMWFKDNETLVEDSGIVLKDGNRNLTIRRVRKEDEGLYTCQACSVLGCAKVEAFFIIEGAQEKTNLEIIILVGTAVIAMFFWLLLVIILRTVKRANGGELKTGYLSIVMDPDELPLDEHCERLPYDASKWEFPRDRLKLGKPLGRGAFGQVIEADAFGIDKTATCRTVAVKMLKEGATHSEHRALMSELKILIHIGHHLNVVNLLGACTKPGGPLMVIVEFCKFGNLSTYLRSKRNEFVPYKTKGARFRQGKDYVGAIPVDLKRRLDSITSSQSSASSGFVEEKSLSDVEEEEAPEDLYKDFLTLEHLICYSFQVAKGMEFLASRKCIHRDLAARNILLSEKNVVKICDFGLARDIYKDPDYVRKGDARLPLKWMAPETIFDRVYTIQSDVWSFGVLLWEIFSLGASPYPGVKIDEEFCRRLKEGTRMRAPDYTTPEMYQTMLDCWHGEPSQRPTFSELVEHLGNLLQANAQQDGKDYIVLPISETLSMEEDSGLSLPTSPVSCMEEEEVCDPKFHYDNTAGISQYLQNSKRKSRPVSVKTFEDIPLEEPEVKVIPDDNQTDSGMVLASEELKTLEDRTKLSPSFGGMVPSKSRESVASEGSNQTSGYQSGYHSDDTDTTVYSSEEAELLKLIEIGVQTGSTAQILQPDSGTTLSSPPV
Another assay concerns the target RET G810R kinase (Homo sapiens, UniProt P07949, G810R). Description: HTRF method for testing the inhibitory activity against RET G810R. The format is biochemical. The following applies: for IC50: HTRF; for inhibitory activity against G810R (in words): mutant strain of RET kinase.
For the next assay, the target named is T1, CCDC6-RET (Homo sapiens, UniProt P07949).
T1 construct: CCDC6 (fusion partner, N-terminal part); the other entry of the earlier key: CCDC6 (Q16204, Coiled-coil domain-containing protein 6)
T1 sequence (P07949 with tags, fused parts or gaps): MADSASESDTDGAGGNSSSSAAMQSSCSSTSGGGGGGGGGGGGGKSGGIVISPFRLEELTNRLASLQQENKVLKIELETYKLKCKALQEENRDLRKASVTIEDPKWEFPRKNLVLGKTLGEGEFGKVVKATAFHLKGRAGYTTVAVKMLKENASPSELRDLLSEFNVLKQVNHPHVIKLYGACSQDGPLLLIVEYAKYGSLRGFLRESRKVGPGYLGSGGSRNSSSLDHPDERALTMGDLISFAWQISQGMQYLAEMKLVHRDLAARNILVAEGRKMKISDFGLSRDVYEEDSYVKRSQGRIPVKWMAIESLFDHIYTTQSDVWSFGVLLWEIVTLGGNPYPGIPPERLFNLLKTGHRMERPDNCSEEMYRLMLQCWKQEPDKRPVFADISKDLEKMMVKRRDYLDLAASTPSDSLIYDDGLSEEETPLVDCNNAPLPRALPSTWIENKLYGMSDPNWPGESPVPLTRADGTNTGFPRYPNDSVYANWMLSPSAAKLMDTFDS
Briefly: Inhibitory activity against RET gene fusion CCDC6-RET. The settings on record: read-out: median inhibitory activity (IC50) against CCDC6-RET. The class given is biochemical.

The target of a further assay is RET M918T (Homo sapiens, UniProt P07949, M918T). Description: Inhibitory activity against RET kinase mutant RET M918T. The format is biochemical. The following applies: read-out: median inhibitory activity (IC50) against RET M918T.
RET M918T, sequence (P07949 29-1114 M918T): as the sequence (P07949 29-1114 G810S) above, with S782G, M890T counted along it
For a further assay, the target named is RET V804M (Homo sapiens, UniProt P07949, V804M). Briefly: Inhibitory activity against RET kinase mutant RET V804M. The class given is biochemical. The settings on record: read-out: median inhibitory activity (IC50) against RET V804M.
RET V804M, sequence (P07949 29-1114 V804M): as the sequence (P07949 29-1114 G810S) above, with V776M, S782G counted along it
In the next assay the target is T2, Ba/F3-KIF5B-RET cell (Homo sapiens, UniProt P07949).
T2 construct: fused on or other part: P33176 (Kinesin-1 heavy chain)
T2 sequence (P07949 whole entry, change not shown, the tested form may be a part): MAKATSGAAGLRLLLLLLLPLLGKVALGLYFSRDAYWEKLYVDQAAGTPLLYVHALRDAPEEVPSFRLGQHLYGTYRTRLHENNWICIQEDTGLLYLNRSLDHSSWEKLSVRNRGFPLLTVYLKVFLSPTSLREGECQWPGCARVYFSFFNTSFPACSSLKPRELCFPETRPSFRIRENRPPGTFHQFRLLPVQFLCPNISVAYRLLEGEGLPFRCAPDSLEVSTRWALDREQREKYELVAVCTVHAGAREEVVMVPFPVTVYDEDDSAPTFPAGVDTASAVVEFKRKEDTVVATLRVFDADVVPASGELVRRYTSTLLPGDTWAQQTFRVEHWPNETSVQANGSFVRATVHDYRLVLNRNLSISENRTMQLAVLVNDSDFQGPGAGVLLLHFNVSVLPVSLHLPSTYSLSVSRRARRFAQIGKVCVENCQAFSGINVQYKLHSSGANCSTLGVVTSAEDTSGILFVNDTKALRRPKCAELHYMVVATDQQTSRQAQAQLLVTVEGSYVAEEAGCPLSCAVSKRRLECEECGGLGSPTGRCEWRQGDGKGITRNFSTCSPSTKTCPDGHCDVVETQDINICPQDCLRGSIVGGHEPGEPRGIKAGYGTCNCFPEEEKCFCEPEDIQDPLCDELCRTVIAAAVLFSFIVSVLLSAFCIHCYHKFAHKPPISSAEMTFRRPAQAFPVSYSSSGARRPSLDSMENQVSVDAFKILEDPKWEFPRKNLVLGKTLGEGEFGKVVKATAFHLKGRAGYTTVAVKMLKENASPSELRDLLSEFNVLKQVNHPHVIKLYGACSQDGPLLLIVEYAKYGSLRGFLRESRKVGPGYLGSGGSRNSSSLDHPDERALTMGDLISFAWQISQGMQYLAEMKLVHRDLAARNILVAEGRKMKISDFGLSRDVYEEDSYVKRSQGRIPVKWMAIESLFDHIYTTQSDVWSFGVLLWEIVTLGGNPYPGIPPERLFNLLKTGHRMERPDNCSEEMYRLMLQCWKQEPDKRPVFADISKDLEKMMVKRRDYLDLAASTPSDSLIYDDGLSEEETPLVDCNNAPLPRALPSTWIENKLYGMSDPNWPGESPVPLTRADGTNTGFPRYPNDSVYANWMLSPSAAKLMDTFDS
Description: CellTiter-Glo luminescence assay, inhibitory activity against Ba/F3-KIF5B-RET cell. The class given is cell-based. The following applies: 72 h, read-out: Ba/F3-KIF5B-RET cell activity. In a few lines:
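Ba/F3 cells stably expressing human KIF5B-RET, 800 per well, treated 72 h at 37° C with 10 compound concentrations from 5000 to 0.254 nM (0.5% DMSO). Viability by CellTiter-Glo luminescence; IC50 from curve fitting.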

The target in another assay is Wild-type RET kinase (Homo sapiens, UniProt P07949). Briefly: HTRF method for testing the inhibitory activity of compounds against RET. The class given is biochemical. The settings on record: HTRF; read-out: Wild-type RET kinase.
Wild-type RET kinase, sequence (P07949 29-1114): as the sequence (P07949 29-1114 G810S) above, with S782G counted along it

RET G810R kinase, sequence (P07949 29-1114 G810R): as the sequence (P07949 29-1114 G810S) above, with S782R counted along it

With `CCNc1cc(-c2cnc(N3CC4CC(C3)N4Cc3ccc(OC)nc3)cn2)c2c(C#N)cnn2c1` [Compound 29, 6-(ethylamino)-4-(5-(-6-((6-methoxypyridin-3-yl)methyl)-3,6-diazabicyclo[3.1.1]heptane-3-yl)pyrazin-2-yl)pyrazolo[1,5-a]pyridine-3-carbonitrile], the IC50 was 1.93 nM against RET G810S kinase; 56 nM on VEGFR2 kinase; 23.8 nM on RET G810R kinase; less than 5 nM at CCDC6-RET; less than 5 nM at RET M918T; less than 5 nM on RET V804M. Also, at Wild-type RET kinase, the IC50 worked out at 0.181 nM. For the same compound, on RET G810S kinase, the “inhibitory activity against G810S (in words)” value was “good inhibitory activity”. Also, the “inhibitory activity against G810R (in words)” value against RET G810R kinase is “good inhibitory activity”. For the same compound, on Ba/F3-KIF5B-RET cell, the GI50 stood at 4.43 nM.

As for `CCNc1cc(-c2ccc(N3CC4CC(C3)N4Cc3ccc(-n4cc(F)cn4)nc3)nc2)c2c(C#N)cnn2c1` [Compound 52, 6-(ethylamino)-4-(6-(6-((6-(4-fluoro-1H-pyrazol-1-yl)pyridin-3-yl)methyl)-3,6-diazabicyclo[3.1.1]heptan-3-yl)pyridin-3-yl)pyrazolo[1,5-a]pyridine-3-carbonitrile], the IC50 on VEGFR2 kinase was 39 nM; on CCDC6-RET, less than 5 nM; at RET M918T, less than 5 nM; at RET V804M it was less than 5 nM; on Wild-type RET kinase it was 2.02 nM. In addition, the GI50 on Ba/F3-KIF5B-RET cell worked out at 142 nM.

In the case of `CCNc1cc(-c2ccc(N3CC4CC(C3)N4Cc3ccc(OC)nc3)nc2)c2c(C#N)cnn2c1` [Compound 62, 6-(ethylamino)-4-(6-(6-((6-methoxypyridin-3-yl)methyl)-3,6-diazabicyclo[3.1.1]heptan-3-yl)pyridin-3-yl)pyrazolo[1,5-a]pyridine-3-carbonitrile], the IC50 was determined as 0.8 nM against RET G810S kinase, 20 nM at VEGFR2 kinase, 6.22 nM at RET G810R kinase and 0.21 nM at Wild-type RET kinase. For the same compound, on RET G810S kinase, the “inhibitory activity against G810S (in words)” value was “good inhibitory activity”. For the same compound, the “inhibitory activity against G810R (in words)” value at RET G810R kinase is on record as “good inhibitory activity”. On Ba/F3-KIF5B-RET cell, the GI50 came to 1.82 nM.

Turning to `COc1ccc(CN2C3CC2CN(c2ccc(-c4cc(NCC(C)(C)O)cn5ncc(C#N)c45)cn2)C3)cn1` [Compound 63, 6-((2-hydroxy-2-methylpropyl)amino)-4-(6-(6-((6-methoxypyridin-3-yl)methyl)-3,6-diazabicyclo[3.1.1]heptan-3-yl)pyridin-3-yl)pyrazolo[1,5-a]pyridine-3-carbonitrile], the IC50 against RET G810S kinase was determined as 15 nM; against VEGFR2 kinase, 65.2 nM; against RET G810R kinase, 76.9 nM; at Wild-type RET kinase, 0.47 nM. For the same compound, the “inhibitory activity against G810S (in words)” value against RET G810S kinase was “good inhibitory activity”. Besides, at RET G810R kinase, the “inhibitory activity against G810R (in words)” value is on record as “good inhibitory activity”. For the same compound, on Ba/F3-KIF5B-RET cell, the GI50 stood at 3.39 nM.

Take `COc1ccc(CN2C3CC2CN(c2cnc(-c4cc(N5CCOCC5)cn5ncc(C#N)c45)cn2)C3)cn1` [Compound 66, 4-(5-(6-((6-methoxypyridin-3-yl)methyl)-3,6-diazabicyclo[3.1.1]heptyl-3-yl)pyrazin-2-yl)-6-morpholinopyrazolo[1,5-a]pyridine-3-carbonitrile]: the IC50 against RET G810S kinase worked out at 26.7 nM; against VEGFR2 kinase, 318 nM; against RET G810R kinase it was 173 nM; at Wild-type RET kinase it was 0.82 nM. In addition, the “inhibitory activity against G810S (in words)” value at RET G810S kinase was “good inhibitory activity”. In addition, the “inhibitory activity against G810R (in words)” value at RET G810R kinase was “good inhibitory activity”. Also, at Ba/F3-KIF5B-RET cell, the GI50 amounted to 6.21 nM.

As to `COc1ccc(CN2C3CC2CN(c2ccc(-c4cc(NCC(C)C)cn5ncc(C#N)c45)cn2)C3)cn1` [Compound 67, 6-(isobutylamino)-4-(6-(6-((6-methoxypyridin-3-yl)methyl)-3,6-diazabicyclo[3.1.1]hept-3-yl)pyridin-3-yl)pyrazolo[1,5-a]pyridine-3-carbonitrile], the IC50 on RET G810S kinase came to 11 nM; against VEGFR2 kinase it was 45.4 nM; against RET G810R kinase, 90.9 nM; at Wild-type RET kinase it was 0.15 nM. In addition, the “inhibitory activity against G810S (in words)” value at RET G810S kinase is listed as “good inhibitory activity”. Also, the “inhibitory activity against G810R (in words)” value on RET G810R kinase is reported as “good inhibitory activity”. The GI50 at Ba/F3-KIF5B-RET cell came to 2.19 nM.

On to `CCCCNc1cc(-c2ccc(N3CC4CC(C3)N4Cc3ccc(OC)nc3)nc2)c2c(C#N)cnn2c1` [Compound 68, 6-(butylamino)-4-(6-(6-((6-methoxypyridin-3-yl)methyl)-3,6-diazabicyclo[3.1.1]hept-3-yl)pyridin-3-yl)pyrazolo[1,5-a]pyridine-3-carbonitrile], for which the IC50 was found to be 6.18 nM on RET G810S kinase, 59.8 nM against VEGFR2 kinase, 49.1 nM against RET G810R kinase and 0.37 nM at Wild-type RET kinase. At RET G810S kinase, the “inhibitory activity against G810S (in words)” value is “good inhibitory activity”. Moreover, the “inhibitory activity against G810R (in words)” value against RET G810R kinase was “good inhibitory activity”. Further, at Ba/F3-KIF5B-RET cell, the GI50 amounted to 4.19 nM.

For `COc1ccc(CN2C3CC2CN(c2ccc(-c4cc(NC(C)C)cn5ncc(C#N)c45)cn2)C3)cn1` [Compound 69, 6-(isopropylamino)-4-(6-(6-((6-methoxypyridin-3-yl)methyl)-3,6-diazabicyclo[3.1.1]heptyl-3-yl)pyridin-3-yl)pyrazolo[1,5-a]pyridine-3-carbonitrile], the IC50 against RET G810S kinase came to 27 nM; against VEGFR2 kinase it was 42.2 nM; at RET G810R kinase it was 42.4 nM; on Wild-type RET kinase, 0.47 nM. Further, the “inhibitory activity against G810S (in words)” value at RET G810S kinase was “good inhibitory activity”. For the same compound, the “inhibitory activity against G810R (in words)” value on RET G810R kinase is given as “good inhibitory activity”. The GI50 at Ba/F3-KIF5B-RET cell turned out to be 4.14 nM.

On to `COc1ccc(CN2C3CC2CN(c2ccc(-c4cc(N5CCOCC5)cn5ncc(C#N)c45)cn2)C3)cn1` [Compound 70, 4-(6-(6-((6-methoxypyridin-3-yl)methyl)-3,6-diazabicyclo[3.1.1]heptyl-3-yl)pyridin-3-yl)-6-morpholinopyrazolo[1,5-a]pyridine-3-carbonitrile], for which the IC50 at RET G810S kinase came to 10.4 nM; at VEGFR2 kinase, 57.5 nM; on RET G810R kinase it was 31.4 nM; at Wild-type RET kinase, 0.24 nM. The “inhibitory activity against G810S (in words)” value at RET G810S kinase was “good inhibitory activity”. Further, on RET G810R kinase, the “inhibitory activity against G810R (in words)” value was “good inhibitory activity”. In addition, the GI50 on Ba/F3-KIF5B-RET cell came to 1.97 nM.
